Test results as given in article PMC8296708, “The pan HDAC inhibitor Givinostat improves muscle function and histological parameters in two Duchenne muscular dystrophy murine models expressing different haplotypes of the LTBP4 gene” (Skeletal Muscle, 2021).

Key:
[1] = Body weight of mdx mice; type: in vivo, mouse (C57BL/10ScSn-Dmd^mdx/J)
Method: In the efficacy studies, Givinostat powder (ITF2357) was suspended in 0.5% methylcellulose (Sigma-Aldrich) and administered p.o. (by gavage) at the doses of 0.1, 0.3, 1, 5, 10, 25, and 37.5 mg/kg qdx5x15weeks (administration volume per mouse: 10 mL/kg) in mdx mice (see Additional Figure 1A). Vehicle-treated mdx mice received 0.5% methylcellulose suspension. Givinostat suspension was stored at + 4 °C, and it was freshly prepared every 7 days. Probably due to the impairment of their tongue and masticatory muscles, the oral gavage procedure turned out to be difficult to perform, and chronic treatment of D2.B10 mice by this route was considered to bear a high risk of damaging the esophagus. For this reason, Givinostat was administered in the drinking water. […] Water consumption was weekly monitored throughout the entire duration of the study weighing the bottle of each cage (maximum 4 mice per cage). […] All mice were monitored daily and tolerability was evaluated on the basis of BW and clinical signs.
In both efficacy studies, the effectiveness of treatments was evaluated every week by measuring the forelimb strength by a grip strength meter (Ugo Basile SRL, Italy). BW of mdx (see Additional Figure 2) and D2.B10 mice (see Additional Figure 3) was also measured in order to normalize the absolute grip strength of each mouse with respect to its BW. […]

[2] = test system: mdx mice; assay: Muscle fibrosis by Sirius Red staining in mdx mice; type: in vivo, mouse (C57BL/10ScSn-Dmd^mdx/J)
Source text: Tibialis anterior (TA), gastrocnemius (GAS), DIA, and heart were collected from mice maintained under isoflurane anesthesia and sacrificed by cervical dislocation. These muscles were collected from C57BL/10J wt and mdx (5 mice/group) at the end of treatments and from DBA/2J wt and D2.B10 mice (5 mice/group) at two different time points to be examined by a pathologist (for more details see Additional Table 1). Due to the results obtained by the functional tests, muscles from only some treatment groups were analyzed in both DMD models (see Additional Table 1). All the collected muscles were fixed in 10% buffered formalin solution (Bio-optica, Milan, Italy) at + 4 °C for at least 48 h. After fixation, muscular samples were transversely trimmed, caged, and paraffin embedded overnight with an Automated Vacuum Tissue Processor Floor (ETP, Histo-Line Laboratories) and included in paraffin blocks. Serial transverse cross-sections (4 μm thick) were cut with a microtome (Leica RM 2255), collected onto uncoated glass slides, and stained using a standard protocol for hematoxylin and eosin (Mayer hematoxylin & Aqueous G Eosin 1%, Bio-Optica) and Sirius Red staining (Direct Red 80, Sigma-Aldrich). For the image analysis and quantitation, hematoxylin and eosin- and Sirius Red-stained slides were examined with an Olympus BX51 light microscope. From each sample, 1 to 3 random microphotographs at the magnification of × 4 and × 10 (TA, GAS and heart) or × 20 (DIA) were collected using Image-Pro Plus system. The digital images were processed by a pathologist using ImageJ software (U.S. National Institutes of Health, Bethesda, MD, USA). To quantify CSA and centralized nuclei (%) on hematoxylin and eosin-stained sections, one hundred myofibers were manually measured for each muscle/mouse using a tablet pen (Wacom Intruos) and analyzed by the ImageJ software after a linear calibration of 150 μm. The fibrotic area, corresponding to the area stained in red, was compared to the total area of the tissue section, and the results were expressed as percentage fibrosis. The % of fibrosis of muscles in the different treatment groups was expressed by averaging the three values obtained from each muscle.

CCN(CC)Cc1ccc2cc(COC(=O)Nc3ccc(C(=O)NO)cc3)ccc2c1 [Givinostat]
Body weight ([1]; 25 mg/kg, day 105 (vehicle 37.2 ± 0.8, p < 0.01)): 32.9 ± 0.9 g | Body weight ([1]; 37.5 mg/kg, day 105 (vehicle 37.2 ± 0.8, p < 0.05)): 33.1 ± 0.9 g | Reduction of fibrosis in GAS ([2]; 10 and 37.5 mg/kg, T16, vs vehicle): about 30% | Effect on fibrosis in TA ([2]; T16, doses 1, 10, 37.5 mg/kg analyzed): observed only at the dose of 37.5 mg/kg | Reduction of fibrosis in DIA ([2]; all 3 analyzed doses (1, 10, 37.5 mg/kg), T16): about 40% | Effect on fibrosis in heart ([2]; all 3 doses analyzed, T16, vs vehicle): the effect was not significant
